Read-outs that look alike come from different tables or passages of the source.
Columns and labels:
human mGlu2 receptor = molecular target: T1, human mGlu2 receptor (Homo sapiens, UniProt Q14416); test: [35S]GTPγS binding assay (mGluR2 negative allosteric modulation, glutamate ~EC80 60 μM); assay type: biochemical; settings: for Emax: read-out: GTPγS-hmGluR2 anGT Emax; for IC50: glutamate ~EC80 (60 μM), pIC50 = −log IC50 (M)
T1 construct: expressed in transfected cells; host or cells: CHO cells
Procedure: 1) [^35S]GTPγS Binding Assay
[^35S]GTPγS Binding Assay
Total reaction volume was 200 μl. […] Membrane-bound radioactivity was counted in a Topcount.

rats = test: Reversal of the effect of the mGluR2 PAM JNJ-42153605-induced inhibition of scopolamine-induced hyperlocomotion (SCOP JNJ-42153605); assay type: in vivo, rat; settings: for ED50: Rattus norvegicus, PO (oral route), rats, reversal criterion total distance >1500 cm
Procedure: 2) Reversal of the Effect of the mGluR2 PAM JNJ-42153605-Induced Inhibition of Scopolamine-Induced Hyperlocomotion Apparatus
Motor activity was measured in microprocessor-based motor activity arenas (closed gray PVC cylinders with a height of 39 cm and a diameter of 31 cm). Each arena was placed on an infrared LED (8×8 LEDs) lit box (white PVC squared box; 40×40 cm^2; height 12.5 cm. An infrared-sensitive tube camera and a white light source were mounted to the ceiling above the observation chamber to track the animal. The total distance traveled (cm) was recorded and analyzed using the Noldus Ethovision XT Video Tracking System (Version 7.0.418; Noldus, Wageningen, The Netherlands). The intensity of the light within the activity cages (measured in the centre at the level of the floor) ranged between 4 and 8 LUX.
The rats were pretreated with test compound or vehicle at 60 min before the start of the activity recordings and placed into individual cages. The rats were challenged with JNJ-42153605 (3-(cyclopropylmethyl)-7-(4-phenylpiperidin-1-yl)-8-(trifluoromethyl)[1,2,4]triazolo[4,3-a]pyridine; WO2010/130424; Cid et al. J. Med. Chem. 2012, 55, 8770-8789) (20 mg/kg, i.v.) 30 min before the start of the activity recording combined with scopolamine (0.16 mg/kg, i.v.) just before the start of the activity measurements. Immediately after the injection of scopolamine, the rats were placed into the activity monitors and total distance travelled over the first 30 min was measured.
Solvent-Pretreated Control Rats.
Animals receiving the combination of JNJ-42153605 and scopolamine (n=433) almost always travelled a distance of less than 1500 cm (<1500 cm) (only 2.5% of the control rats travelled a distance of more than 1500 cm (>1500 cm)). On the other hand, animals challenged with scopolamine alone (n=215) always travelled a total distance of more than 1500 cm (>1500 cm) and almost always (in 95.8% of the rats) a distance of more than 4400 cm (>4400 cm). […] For reversal of the inhibitory effect of JNJ-42153605 on the scopolamine-induced hyperlocomotion, the following all-or-none criteria were adopted: (1) reversal: total distance >1500 cm.

[1] = maximal % inhibition relative to the control glutamate response (EC80 glutamate)
[2] = membranes from CHO cells transfected with human mGlu2 receptor, read-out: GTPγS-hmGluR2 anGT pIC50 (converted)
[3] = GTPγS-hmGluR2 anGT pIC50, membranes from CHO cells transfected with human mGlu2 receptor
[4] = historical solvent-pretreated control rats, first 30 min

T1 sequence (Q14416 19-872): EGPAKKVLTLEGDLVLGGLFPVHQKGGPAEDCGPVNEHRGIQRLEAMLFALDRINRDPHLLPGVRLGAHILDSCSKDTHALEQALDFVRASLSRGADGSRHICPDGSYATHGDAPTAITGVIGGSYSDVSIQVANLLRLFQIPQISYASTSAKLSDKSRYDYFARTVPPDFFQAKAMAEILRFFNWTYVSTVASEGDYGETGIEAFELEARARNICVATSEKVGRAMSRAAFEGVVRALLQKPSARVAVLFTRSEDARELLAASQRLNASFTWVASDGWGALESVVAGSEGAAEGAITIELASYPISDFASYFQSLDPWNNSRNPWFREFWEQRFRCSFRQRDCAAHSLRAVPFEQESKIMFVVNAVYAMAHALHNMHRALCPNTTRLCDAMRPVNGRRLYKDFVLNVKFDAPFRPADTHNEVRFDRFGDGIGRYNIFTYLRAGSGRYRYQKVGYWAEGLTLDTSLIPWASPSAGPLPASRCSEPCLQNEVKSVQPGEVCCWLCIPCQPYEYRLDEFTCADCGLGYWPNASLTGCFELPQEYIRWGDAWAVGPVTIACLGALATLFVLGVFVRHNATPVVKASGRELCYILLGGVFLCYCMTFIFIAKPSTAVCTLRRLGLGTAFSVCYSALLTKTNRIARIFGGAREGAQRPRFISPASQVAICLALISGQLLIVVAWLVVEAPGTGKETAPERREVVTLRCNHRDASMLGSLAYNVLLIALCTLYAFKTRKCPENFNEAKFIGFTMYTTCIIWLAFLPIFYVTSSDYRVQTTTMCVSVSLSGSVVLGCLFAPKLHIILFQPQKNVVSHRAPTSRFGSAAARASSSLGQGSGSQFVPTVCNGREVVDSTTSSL

SMILES	Emax (human mGlu2 receptor; [1]) [%]	IC50 (human mGlu2 receptor; [2]) [M]	ED50 (rats) [mg/kg]	melting point [°C]	other results
Cc1ccnc(N)c1C(=O)Nc1cnn2c1C(=O)N(c1ccc(C(F)(F)F)cc1)C[C@@H]2C (racemic) [Co. No. 192]	110	2.69e-08	> 0.63	177.39	–
COc1ccnc(N)c1C(=O)Nc1cnn2c1C(=O)N(c1ccc(C(F)(F)F)cc1)C[C@@H]2C (racemic) [Co. No. 193]	106	2.88e-09	> 0.63	248.21	–
C[C@H]1CN(c2ccc(C(F)(F)F)cc2)C(=O)c2c(NC(=O)c3cccnc3NCCO)cnn21 (racemic) [Co. No. 213]	103	1.02e-09	1.12	168.55	–
C[C@H]1CN(c2ccc(C(F)(F)F)c(Cl)c2)C(=O)c2c(NC(=O)c3cccnc3NCCO)cnn21 (racemic) [Co. No. 214]	112	5.25e-10	0.32	–	–
C[C@H]1CN(c2ccc(C(F)(F)F)c(Cl)c2)C(=O)c2c(NC(=O)c3ccccc3)cnn21 [Co. No. 2]	105	1.32e-09	> 2.5	161.54	–
C[C@H]1CN(c2ccc(Cl)c(Cl)c2)C(=O)c2c(NC(=O)c3ccc(N)nc3)cnn21 [Co. No. 3]	110	1.62e-09	0.32	189.94	–
C[C@H]1CN(c2ccc(C(F)F)c(Cl)c2)C(=O)c2c(NC(=O)c3ccc(N)nc3)cnn21 [Co. No. 6]	114	–	> 2.5	177	–
C[C@H]1CN(c2ccc(C(F)(F)F)cc2)C(=O)c2c(NC(=O)c3ccccc3F)cnn21 [Co. No. 11]	104	2.57e-09	> 2.5	241.79	–
C[C@H]1CN(c2ccc(C(F)(F)F)cc2)C(=O)c2c(NC(=O)c3cccc(F)c3)cnn21 [Co. No. 14]	102	2.75e-09	> 2.5	161.84	–
C[C@H]1CN(c2ccc(C(F)(F)F)cc2)C(=O)c2c(NC(=O)c3nccs3)cnn21 [Co. No. 15]	111	3.24e-09	> 2.5	213.94	–
C[C@H]1CN(c2ccc(C(F)(F)F)cc2)C(=O)c2c(NC(=O)c3ccccc3)cnn21 [Co. No. 16]	108	3.39e-09	> 2.5	201.48	–
C[C@H]1CN(c2ccc(Cl)c(OC(F)F)c2)C(=O)c2c(NC(=O)c3ccc(N)nc3)cnn21 [Co. No. 18]	117	4.27e-09	> 2.5	–	–
COc1cccc(C(=O)Nc2cnn3c2C(=O)N(c2ccc(C(F)(F)F)cc2)C[C@@H]3C)n1 [Co. No. 20]	–	4.57e-09	> 2.5	190	GTPγS-hmGluR2 anGT Emax (human mGlu2 receptor; [1]): 103%
COCc1cc(N2C[C@H](C)n3ncc(NC(=O)c4ccc(N)nc4)c3C2=O)ccc1C(F)(F)F [Co. No. 22]	111	4.79e-09	> 2.5	213.77	–
C[C@H]1CN(c2ccc(Cl)cc2)C(=O)c2c(NC(=O)c3ccc(N)nc3)cnn21 [Co. No. 36]	110	8.91e-09	0.5	–	–
Cc1cc(C(=O)Nc2cnn3c2C(=O)N(c2ccc(C(F)(F)F)cc2)C[C@@H]3C)cc(N)n1 [Co. No. 162]	107	2.75e-09	–	196.39	–
Cc1cc(N)ncc1C(=O)Nc1cnn2c1C(=O)N(c1ccc(C(F)(F)F)cc1)C[C@@H]2C [Co. No. 163, 6-Amino-4-methyl-N-[(7S)-7-methyl-4-oxo-5-[4-(trifluoromethyl)phenyl]-6,7-dihydropyrazolo[1,5-a]pyrazin-3-yl]pyridine-3-carboxamide]	106	2.57e-09	–	226.06	–
Cc1cc(N)ncc1C(=O)Nc1cnn2c1C(=O)N(c1ccc(C(F)(F)F)c(Cl)c1)C[C@@H]2C [Co. No. 164]	108	1.35e-09	–	233.32	–
Cc1cc(C(=O)Nc2cnn3c2C(=O)N(c2ccc(C(F)(F)F)c(Cl)c2)C[C@@H]3C)cc(N)n1 [Co. No. 174]	106	1.66e-09	–	192.47	–
Cc1cc(C(=O)Nc2cnn3c2C(=O)N(c2ccc(C(F)(F)F)cc2)C[C@@H]3C)nc(N)n1 [Co. No. 180]	107	4.37e-08	–	265.47	–
C[C@H]1CN(c2ccc(C(F)(F)F)cc2)C(=O)c2c(NC(=O)C3CCOCC3)cnn21 [Co. No. 186]	106	7.08e-07	–	142.94	–
C[C@@H]1CN(c2ccc(C(F)(F)F)cc2)C(=O)c2c(NC(=O)c3cccnc3)cnn21 [Co. No. 188]	105	2.45e-07	–	152.2	–
O=C(Nc1cnn2c1C(=O)N(c1ccc(C(F)(F)F)cc1)CC2)c1cccnc1 [Co. No. 190]	102	1.07e-06	–	162.12	–
C[C@H]1CN(c2ccc(OC(F)(F)F)c(Cl)c2)C(=O)c2c(NC(=O)c3cccnc3)cnn21 [Co. No. 195]	105	1.58e-09	–	181.21	–
Cc1cnc(N)c(C(=O)Nc2cnn3c2C(=O)N(c2ccc(Cl)cc2)C[C@@H]3C)c1 [Co. No. 201]	108	4.9e-09	> 0.63	–	–
C[C@H]1CN(c2ccc(C(F)(F)F)cc2)C(=O)c2c(NC(=O)c3cccc(S(=O)(=O)F)c3)cnn21 [Co. No. 217]	–	–	–	161.88	IC50 (human mGlu2 receptor; [3]): 1.07e-08 M; Emax (human mGlu2 receptor): 110%
C[C@H]1CN(c2ccc(C(F)(F)F)cc2)C(=O)c2c(NC(=O)c3ccc(S(=O)(=O)F)cc3)cnn21 [Co. No. 218]	–	–	–	163.64	IC50 (human mGlu2 receptor; [3]): 4.37e-08 M; Emax (human mGlu2 receptor): 112%
C[C@H]1CN(c2ccc(C(F)(F)F)cc2)C(=O)c2c(NC(=O)c3cncc(F)n3)cnn21 [Co. No. 219, 6-fluoro-N-[(7S)-7-methyl-4-oxo-5-[4-(trifluoromethyl)phenyl]-6,7-dihydropyrazolo[1,5-a]pyrazin-3-yl]pyrazine-2-carboxamide]	107	3.31e-09	–	183.54	–
CN1[C@@H]2C[C@@H](OC(=O)[C@H](CO)c3ccccc3)C[C@H]1[C@@H]1O[C@@H]12 [Scopolamine, scopolamine, reference compound]	–	–	–	–	Rats with total distance >1500 cm (%) (rats; [4]): 100%; Rats with total distance >4400 cm (%) (rats; [4]): 95.8%; Total distance travelled, median (cm) (rats; historical solvent-pretreated control rats, first 30 min, scopolamine 0.16 mg/kg i.v., JNJ-42153605 20 mg/kg i.v.): 7246 cm

— patent US10519162B2, “6,7-dihydropyrazolo[1,5-α]pyrazin-4(5H)-one compounds and their use as negative allosteric modulators of mGluR2 receptors” (Janssen Pharmaceutica NV, priority 2014, dated 2019)
